Data set [1] concerns Mus musculus. The data set is described as follows: Antiinflammatory activity against CFA-induced paw edema in female CD1 mouse model assessed as reduction in paw swelling at 10 mg/kg, po preincubated with compound for 30 mins followed by CFA stimulation and measured after 24 hrs. Format: functional, organism-based. Conditions: time 24.5 hrs.
Data set [2] concerns Mus musculus. In words: Antiinflammatory activity against TPA-induced ear edema in female CD1 mouse model assessed as reduction in ear edema by measuring maximum efficacy at 0.25 to 1.25 mg measured per ear incubated for 4 hrs administered topically relative to control. Format: functional. The settings on record: CD1, topical, dose 0.25-1.25 mg.
The test system of data set [3] is Mus musculus. In words: Antiinflammatory activity against CFA-induced paw edema in female CD1 mouse model assessed as reduction in paw swelling by measuring AUC at 10 mg/kg, po preincubated with compound for 30 mins followed by CFA stimulation and measured after 2 to 6 hrs relative to control. Format: functional. Also noted: scale not given: the % may be the effect or the level left. Conditions: time 2.5-6.5 hrs.

Data set [4] relates to Mus musculus. The data set is described as follows: Antiinflammatory activity against CFA-induced paw edema in female CD1 mouse model assessed as reduction in paw swelling at 10 mg/kg, po preincubated with CFA followed by compound addition and measured after 25 to 28 hrs relative to control. The settings on record: time 25-28 hrs. Format: functional. Also noted: scale not given: the % may be the effect or the level left.

Data set [5] relates to Mus musculus. The data set is described as follows: Antiinflammatory activity against TPA-induced ear edema in female CD1 mouse model assessed as decrease in NLR value at 1 mg measured per ear administered topically incubated for 4 hrs by microscopic analysis relative to control. Format: functional. Also noted: scale not given: the % may be the effect or the level left.
In data set [6] the test system is Mus musculus. In words: Antiinflammatory activity against CFA-induced paw edema in female CD1 mouse model assessed as reduction in paw swelling at 10 mg/kg, po preincubated with compound for 30 mins followed by CFA stimulation and measured after 2 to 6 hrs. Format: functional, organism-based. The settings on record: time 2.5-6.5 hrs.
The nature of data set [7]: Octanol/water partition coefficient, logP of compound by shake flask method. Format: physicochemical.
In data set [8] the test system is Mus musculus. The data set is described as follows: Antiinflammatory activity against TPA-induced ear edema in female CD1 mouse model assessed as reduction in ear edema by measuring effective dose measured per ear incubated for 4 hrs administered topically. Format: functional.
Data set [9] has as its system Mus musculus. In words: Antiinflammatory activity against TPA-induced ear edema in female CD1 mouse model assessed as reduction in ear edema administered topically incubated for 4 hrs measured per ear. Format: functional, organism-based.
Data set [10] relates to Mus musculus. The data set is described as follows: Potency index, ratio of Indomethacin ED50 to test compound ED50 for antiinflammatory activity against TPA-induced ear edema in female CD1 mouse model assessed as reduction in ear edema by measuring effective dose measured per ear incubated for 4 hrs administered topically. Format: functional.
The test system of data set [11] is Mus musculus. In words: Antiinflammatory activity against TPA-induced ear edema in female CD1 mouse model assessed as decrease in NLR value at 3 mg measured per ear administered topically incubated for 4 hrs by microscopic analysis relative to control. Format: functional. Details: scale not given: the % may be the effect or the level left.
The test system of data set [12] is Mus musculus. The data set is described as follows: Antiinflammatory activity against TPA-induced ear edema in female CD1 mouse model assessed as decrease in NLR value at 5.7 mg measured per ear administered topically incubated for 4 hrs by microscopic analysis relative to control. Format: functional. Details: scale not given: the % may be the effect or the level left.

Data on eight molecules can be found in ChEMBL document CHEMBL6103598, “One-Pot Synthesis of Novel Tetrasubstituted α-Aminophosphonates Derived from α-Methylphosphoserine and In Vivo Evaluation as Anti-Inflammatory Agents” (J Med Chem, 2025).

Calls of active or inactive are those of the source. No cut-off for these calls is given here.

In the case of `COc1ccc2c(c1)c(CC(=O)O)c(C)n2C(=O)c1ccc(Cl)cc1` [INDOMETHACIN], the result in the data set with Mus musculus [1] was inactive. In the data set on Mus musculus [2], the Emax was found to be 89.3%. The values for the Activity with Mus musculus [3], in the data set with Mus musculus [4] and with Mus musculus [5] were 58.7%, 36.5% and 59.3%, respectively. Further, in the data set with Mus musculus [6], the result was Active. For the same molecule, the logP in data set [7] turned out to be 3.99. Also, the ED50 with Mus musculus [8] is reported as 0.54 mg.

For `COc1ccc2cc([C@H](C)C(=O)O)ccc2c1` [NAPROXEN], the outcome with Mus musculus [1] was inactive. Besides, the Activity result was “Dose-dependent-effect” in the data set with Mus musculus [9], 55.4% in the data set on Mus musculus [3], 39.8% in the data set on Mus musculus [4] and 57.1% with Mus musculus [5]. Moreover, the Emax in the data set on Mus musculus [2] worked out at 90.6%. Besides, the result with Mus musculus [6] was Active. Besides, in the data set on Mus musculus [8], the ED50 worked out at 0.13 mg.

For `CCC(=O)OCC(C)(N[C@@H](C)c1ccccc1)P(=O)(OC)OC` (stereo partly drawn), the result with Mus musculus [1] was inactive. Besides, the figures for the Activity result in the data set on Mus musculus [9], in the data set on Mus musculus [3] and in the data set with Mus musculus [4] were “Dose-dependent-effect”, 47.8% and 21.7%, respectively. The Emax with Mus musculus [2] worked out at 85.9%. Moreover, in the data set on Mus musculus [10], the “Ratio ED50” value was found to be 0.8. In the data set on Mus musculus [6], the result was Active. In data set [7], this molecule yielded a logP of 3.5. Moreover, the ED50 with Mus musculus [8] came to 0.66 mg.

With `COP(=O)(OC)C(C)(COC(=O)c1ccccc1)N[C@@H](C)c1ccccc1` (stereo partly drawn), the result in the data set on Mus musculus [1] was inactive. Besides, the Activity result in the data set with Mus musculus [9] was “Dose-dependent-effect”; in the data set with Mus musculus [3] it was 47.8%; with Mus musculus [4], 21.7%; with Mus musculus [11] it was 64.7%. Also, in the data set with Mus musculus [2], the Emax was 91.8%. In the data set on Mus musculus [10], the “Ratio ED50” value was 1.2. Besides, in the data set on Mus musculus [6], the outcome was Active. Further, the logP in data set [7] turned out to be 4.4. In addition, the ED50 in the data set with Mus musculus [8] is 0.46 mg.

With `COc1ccc2cc([C@H](C)C(=O)OCC(C)(N[C@@H](C)c3ccccc3)P(=O)(OC)OC)ccc2c1` (stereo partly drawn), in the data set on Mus musculus [1], the outcome was inactive. The Activity result in the data set with Mus musculus [9] is “Dose-dependent-effect”; in the data set on Mus musculus [3], 47.8%; in the data set with Mus musculus [4], 21.7%; in the data set on Mus musculus [12], 46.7%. Besides, the Emax in the data set on Mus musculus [2] is 93.9%. Also, in the data set on Mus musculus [10], the “Ratio ED50” value came to 2.1. In the data set with Mus musculus [6], the result was Active. In [7], this molecule showed a logP of 4.8. Besides, the ED50 with Mus musculus [8] is 0.26 mg.

For the molecule `COP(=O)(OC)C(C)(COC(=O)c1ccccc1)NCc1ccccc1` (stereo not drawn), the outcome in the data set with Mus musculus [1] was inactive. The Activity result with Mus musculus [9] is “Dose-dependent-effect”; with Mus musculus [3] it was 47.8%; with Mus musculus [4] it was 21.7%. Moreover, in the data set on Mus musculus [2], the Emax was 83.3%. Moreover, the “Ratio ED50” value in the data set on Mus musculus [10] is on record as 1.1. Further, the result in the data set with Mus musculus [6] was Active. The same molecule returned a logP in [7] of 4.2. In the data set with Mus musculus [8], the ED50 worked out at 0.49 mg.

Take `CCC(=O)OCC(C)(NCc1ccccc1)P(=O)(OC)OC` (stereo not drawn): in the data set on Mus musculus [1], the outcome was inactive. The Activity result in the data set on Mus musculus [9] is “Dose-dependent-effect”; with Mus musculus [3] it was 47.8%; in the data set on Mus musculus [4], 21.7%; in the data set on Mus musculus [12], 48%. For the same molecule, in the data set on Mus musculus [2], the Emax came to 90.1%. Moreover, the “Ratio ED50” value in the data set on Mus musculus [10] turned out to be 1.1. Besides, the outcome with Mus musculus [6] was Active. In addition, the logP in data set [7] is 3.3. Besides, in the data set with Mus musculus [8], the ED50 came out at 0.48 mg.

Turning to `COc1ccc2cc([C@H](C)C(=O)OCC(C)(NCc3ccccc3)P(=O)(OC)OC)ccc2c1` (stereo partly drawn), the outcome in the data set on Mus musculus [1] was inactive. The Activity result in the data set with Mus musculus [9] is “Dose-dependent-effect”; in the data set on Mus musculus [3] it was 47.8%; in the data set with Mus musculus [4] it was 21.7%. Also, in the data set on Mus musculus [2], the Emax stood at 84.8%. Besides, in the data set on Mus musculus [10], the “Ratio ED50” value turned out to be 1. Moreover, the result in the data set on Mus musculus [6] was Active. Besides, the logP in data set [7] worked out at 4.5. Further, the ED50 in the data set on Mus musculus [8] was 0.53 mg.

The term Emax denotes the size of the effect at its maximum, as opposed to the concentration needed. The logP is a log measure of how a compound divides between an organic and an aqueous phase.
